These results are taken from patent US11179388B2, “Topical composition for treating rosacea and a method for treating rosacea with the same” (ADS THERAPEUTICS LLC, priority 2017, dated 2021).

Data set [1] relates to Rosacea patients with moderate to severe persistent facial erythema. Kind of data set: Erythema study, Clinician Erythema Assessment (CEA) in rosacea patients. It is filed as in vivo, human. An excerpt: Rosacea patients with moderate to severe persistent facial erythema are selected for treatment. The erythema is graded according to the Clinician Erythema Assessment (CEA) scale with photonumeric guide. It has a five-point scale: 0: clear skin with no signs of erythema; 1: almost clear, slight redness; 2: mild erythema, definite redness; 3: moderate erythema, marked redness; 4: severe erythema, fiery redness. Patients with CEA […] are enrolled in the study.
The study is double-masked. There are 5 treatment groups for 5 cream formulations (vehicle, 0.2% nintedanib, 0.3% brimonidine, combo-1 [0.2% nintedanib and 0.3% brimonidine], and combo-2 [0.1% nintedanib and 0.15% brimonidine]) to be tested and each group will have about 20 patients. The patients are assigned to the groups in a way to make sure the base line average grade is similar among the groups. The formulations are dosed once daily for 4 weeks and the patients are further followed up for 8 weeks. The drug is administered by a physician on the first day of visit and then self-administered by the patient for the remaining 4 weeks. Patients are evaluated on day 1, week 2 and 4 during dosing. After the stop of dosing, patients are further followed up at week 8 and 12.
The effect on erythema is evaluated by taking pictures of the face. […] The tolerability of the formulations is also evaluated by assessing treatment related adverse events. The efficacy and tolerability data are analyzed by independent statisticians.

For data set [2], the system named is pterygium patients (pterygium vascularity). Kind of data set: Phase 2a clinical trial of nintedanib eye drop in pterygium patients. The data set is classed as in vivo, human. The method, then:
Nintedanib was formulated into an eye drop and tested in pterygium patients in a Phase 2a clinical trial to evaluate the safety and efficacy of nintedanib. The key efficacy endpoint is effects on pterygium vascularity.
The clinic trial was conducted in two stages. In stage 1, the safety, tolerability and pharmacokinetics were evaluated in a single dose escalating study. Three dose cohorts with 8 patients in each were evaluated. Cohort 1 began at the lowest concentration of 0.02% nintedanib (weight percent based on the total weight of the eye drop), followed by an increasing dose to 0.05% for Cohort 2 and then to 0.2% for Cohort 3.
In stage 2, the safety, tolerability and efficacy of the 0.2% formulation were evaluated in a randomized, double-masked, vehicle-controlled, parallel study with 28 days TID repeat ocular dosing of vehicle and 0.2% nintedanib. The patients were further followed up by 20 weeks of post-dosing observation. Ophthalmic and physical examinations were performed at screening, Day 1 and Week 2, 4, 8, 16, and 24. External photograph of the pterygium eye was taken using a digital camera and the pterygium vascularity was graded from these images at an independent image reading center. The primary objective is to evaluate ocular and systemic safety of nintedanib in pterygium patients that have moderate to severe pterygium vascularity. […]

Where [3] appears, read: day 1 after dosing, cream formulations.
Setting [4] is: week 1, 2 and 4, during dosing, cream once daily.

In the case of `COC(=O)c1ccc2c(c1)NC(=O)/C2=C(\Nc1ccc(N(C)C(=O)CN2CCN(C)CC2)cc1)c1ccccc1` [Nintedanib, (Z)-3-(1-(4-(N-((4-methyl-piperazin-1-yl)-methylcarbonyl)-N-methyl-amino)-phenylamino)-1-phenyl-methylene]-6-methoxycarbonyl-2-indolinone], the “erythema grade after stop of treatment” value in data set [1] (after stop of dosing at week 4, week 8 and 12) is reported as “remains lower than the baseline”. For the same molecule, the figures for the “erythema grade reduction from baseline” value in data set [1] (setting [3]) and in data set [1] (setting [4]) were “does not change” and “about 1 grade”, respectively. Besides, in data set [2] (0.2% eye drop TID 28 days, 20 weeks post-dosing observation), the “safety and tolerability (stage 2)” value is “excellent with no serious adverse events”. For the same molecule, the “safety, single dose escalating study (stage 1)” value in data set [2] (eye drop 0.02%, 0.05% and 0.2%, single dose, 8 patients per cohort) is given as “No safety issues”.

With `Brc1c(NC2=NCCN2)ccc2nccnc12` [brimonidine, (5-bromoquinoxalin-6-yl)-(4,5-dihydro-1H-imidazol-2-yl)-amine], the “erythema grade reduction from baseline” value in data set [1] (setting [3]) is recorded as “about 1 grade”; in data set [1] (setting [4]) it was “reduction remains”. The entries for the “erythema grade versus baseline after stop of treatment” value in data set [1] (week 8) and in data set [1] (week 12) were “slightly higher than baseline” and “returns to the baseline”, respectively.
